According to PMC10572855, “Phenotypic Test of Benzo[4,5]imidazo[1,2-c]pyrimidinone-Based Nucleoside and Non-Nucleoside Derivatives against DNA and RNA Viruses, Including Coronaviruses” (International Journal of Molecular Sciences, 2023):

System: SARS-CoV-2 RG-2675 (South Africa)
Assay: Cytopathic effect reduction, SARS-CoV-2 RG-2675 (South Africa) in Vero cells
Assay type: cell-based
Settings: Severe acute respiratory syndrome coronavirus 2, Vero, read-out: Antiviral Activity (EC50) RG-2675 (South Africa)

SMILES | EC50 [µM]
COc1ccc(C(OC[C@H]2O[C@@H](n3ccc4nc5cc(O)ccc5n4c3=O)C[C@@H]2O)(c2ccccc2)c2ccc(OC)cc2)cc1 [Compound 3a, 2-((2R,4S,5R)-5-((bis(4-methoxyphenyl)(phenyl)methoxy)methyl)-4-hydroxytetrahydrofuran-2-yl)-7-hydroxybenzo[4,5]imidazo[1,2-c]pyrimidin-1(2H)-one] | 9.1 ± 0.62
CC(C)C(=O)OC[C@H]1O[C@@H](n2ccc(NO)nc2=O)[C@H](O)[C@@H]1O [Molnupiravir] | 5.18 ± 0.26
CCC(CC)COC(=O)[C@H](C)N[P@](=O)(OC[C@H]1O[C@@](C#N)(c2ccc3c(N)ncnn23)[C@H](O)[C@@H]1O)Oc1ccccc1 [Remdesivir, reference compound] | 1.31 ± 0.68
